Laboratory results as given in PMC9230870, “Investigation of the Uptake and Transport of Two Novel Camptothecin Derivatives in Caco-2 Cell Monolayers” (Molecules, 2022).
Read-outs that look alike come from different tables or passages of the source.

What was measured:
[1] = tested on: HCT 116; test: MTT cytotoxicity assay, HCT 116; format: cell-based; settings: HCT 116, MTT, 72 h, mean ± SD (n = 3)
Experimental: (§1) HCT 116, HeLa, A549, Hep G2, and Caco-2 cell lines were obtained from the China Center for Type Culture Collection, CCTCC (Wuhan, China). They were cultured in DMEM, including 10% FBS, 1% penicillin (l00 μg/mL), and 1% streptomycin (l00 μg/mL), in a constant temperature incubator at 37 °C with 5% CO2.
(§2) The cytotoxicity of FL118, FL77-28, and FL77-29 against HCT116, HeLa, A549 HepG2, and Caco-2 cell lines were measured using MTT assays. The cells were plated into 96-well plates at a density of 2 × 10^4 cells/mL and cultured for 24 h. Next, the cells were treated with 0.0125–0.500 μM of FL118, FL77-28, and FL77-29 for 4 h or 72 h. After incubation with 20 µL of 5 mg/mL MTT solution for 4 h, the supernatant was gently discarded and 150 µL of DMSO was added to dissolve the formazan crystals. Finally, the absorbance was measured at 570 nm and the background was subtracted at 630 nm using an ELISA Plate Reader.

[2] = tested on: Hep G2; test: MTT cytotoxicity assay, Hep G2; format: cell-based; settings: 72 h, mean ± SD (n = 3)
Experimental: as §1, §2

[3] = tested on: A549; test: MTT cytotoxicity assay, A549; format: cell-based; settings: 72 h, mean ± SD (n = 3)
Experimental: as §1, §2

[4] = tested on: HeLa; test: MTT cytotoxicity assay, HeLa; format: cell-based; settings: 72 h, mean ± SD (n = 3)
Experimental: as §1, §2

[5] = tested on: Caco-2 cells
Experimental: as §1
as §2, with “Next, the cells were treated with 0.0125–0.500 μM of FL118, FL77-28, and FL77-29 for 4 h or 72 h.” left out

[6] = tested on: Caco-2 cell monolayers; test: Transport across Caco-2 cell monolayers; format: in vitro ADME; settings: for Papp AP-BL / efflux ratio (ER) = Papp BL-AP/Papp AP-BL: 1.0 μM; for Papp AP-BL: AP FaSSIF pH 6.5, BL HBSS pH 7.4; for efflux ratio (ER) = Papp BL-AP/Papp AP-BL: Caco-2 monolayer
Experimental: When Caco-2 cells reached 80–90% confluence in T-25 flasks, the cells were digested, centrifuged, and resuspended. After seeding at a density of 2 × 10^5 cells/well onto the apical of the Transwell® plate, 0.5 mL of 10% DMEM was added into the apical (AP) chamber and 1.5 mL of 10% DMEM was added into the basolateral (BL) chamber. The buffer was refreshed every two days, and after one week it was refreshed daily and incubated until 21 days.
The integrity of the Caco-2 cell monolayer was evaluated by measuring the transepithelial electrical resistance (TEER) and the permeability of Lucifer yellow (LY). The TEER was measured using Millicell® ERS-2 voltameter (Bedford, USA). The Caco-2 cell model was used for the transport of FL77-28 and FL77-29 when the TEER values exceeded 300 Ω/cm^2. The TEER value was also measured at the end of the transport experiment. In addition, the permeability of LY, a paracellular transport marker, was also measured for the tightness of epithelial cells. […] Then, the fluorescence of samples was measured at excitation/emission wavelengths of 492/520 nm using the ELISA Plate.
Before the transport studies, the Caco-2 cell monolayers were washed twice with warm HBSS containing 15 mM glucose, 10 mM HEPES, and 1% BSA (pH 7.4) and pre-incubated for 30 min at 37 °C [26]. Next, HBSS was discarded and replaced with 0.5/1.0 µM of FL77-28 and FL77-29 dissolved in a different buffer on one side of the cell layer, 0.5 mL for the AP side and 1.5 mL for the BL side. The buffer at the AP was FaSSIF (pH 6.5) and the buffer at the BL was HBSS. Then, the monolayers were incubated at 37 °C. A sample aliquot of 0.5 mL (AP-BL) or 0.25 mL (BL-AP) was taken from the receiving compartment at different time points (120, 150, 180, 210, and 240 min) and then replaced with an equal volume of fresh pre-warmed buffer. The concentrations of FL77-28 and FL77-29 in the sample were determined by HPLC.
(§3) Using the Shimadzu HPLC system (Shimadzu, Kyoto, Japan), the samples taken from the uptake experiment and the transport studies were eluted on a C18 reverse-phase column (250 mm × 4.6 mm, 5 μm, Elite, Dalian). The column was maintained at 40 °C and the absorbance detector wavelength was 365 nm. The mobile phase used for FL118, FL77-28, and FL77-29 consisted of acetonitrile: 0.1% formic acid (40:60, v/v), (60:40, v/v), and (65:35, v/v). The flow rate was 1.0 mL/min, and the injection volume was 20 μL. The retention times of FL118, FL77-28, and FL77-29 were 6.109 min (Figure 1A), 8.456 min (Figure 1B), and 6.351 min (Figure 1C), respectively. Calibration curves were constructed over a concentration range of 0.03–1.00 μM. […] The concentration of FL118, FL77-28, and FL77-29 was determined according to the typical equations.
The concentration of each sample was measured by HPLC. The Papp of FL77-28 and FL77-29 was calculated according to the following equation:Papp (cm/s) = V/(C0·A)·(ΔQ/Δt)(1) where V (cm^3) is the volume of the receiver compartment, A is the monolayer surface area of the Transwell insert (1.12 cm^2), C0 is the initial drug concentration in the donor compartment, and (ΔQ/Δt) is the transport rate.
The efflux ratio (ER) was calculated using the following equation:ER = Papp BL-AP/Papp AP-BL(2)

[7] = tested on: Caco-2 cells; test: Cellular uptake in Caco-2 cells, effect of temperature; format: in vitro ADME; settings: 4 °C versus 37 °C, 4 h, 0.2-1.0 μM
Experimental: (§4) Caco-2 cells were plated in a 6-well plate at a density of 2 × 10^5 cells/well and cultured at 37 °C. After reaching 80% confluence, Caco-2 cells could be used in the uptake experiments. Next, the cells were washed twice with HBSS and pre-incubated with HBSS or 1 µM Verapamil or Gefitinib for 30 min. After pre-incubation, the drug-free HBSS was replaced by FaSSIF containing FL118, FL77-28, or FL77-29 (0.2, 0.4, 0.6, 0.8, and 1.0 μM), and then incubated for 4 h at 37 °C or 4 °C, respectively. Next, the cells were collected and lysed by freezing and thawing three times. Then, the cells were sonicated and centrifuged at 10,000 rpm for 10 min. Finally, the supernatants were used to measure concentrations of compounds and proteins by HPLC and Bradford methods.
as §3

[8] = biological target: T1, BCRP (Homo sapiens, UniProt Q9UNQ0); test: Cellular uptake in Caco-2 cells with BCRP inhibitor Gefitinib; format: in vitro ADME; settings: 1 µM Gefitinib pre-incubation 30 min, 0.2-1.0 μM, 37 °C, 4 h
T1 construct: endogenous in cells; host or cells: Caco-2
T1 sequence (Q9UNQ0 1-655): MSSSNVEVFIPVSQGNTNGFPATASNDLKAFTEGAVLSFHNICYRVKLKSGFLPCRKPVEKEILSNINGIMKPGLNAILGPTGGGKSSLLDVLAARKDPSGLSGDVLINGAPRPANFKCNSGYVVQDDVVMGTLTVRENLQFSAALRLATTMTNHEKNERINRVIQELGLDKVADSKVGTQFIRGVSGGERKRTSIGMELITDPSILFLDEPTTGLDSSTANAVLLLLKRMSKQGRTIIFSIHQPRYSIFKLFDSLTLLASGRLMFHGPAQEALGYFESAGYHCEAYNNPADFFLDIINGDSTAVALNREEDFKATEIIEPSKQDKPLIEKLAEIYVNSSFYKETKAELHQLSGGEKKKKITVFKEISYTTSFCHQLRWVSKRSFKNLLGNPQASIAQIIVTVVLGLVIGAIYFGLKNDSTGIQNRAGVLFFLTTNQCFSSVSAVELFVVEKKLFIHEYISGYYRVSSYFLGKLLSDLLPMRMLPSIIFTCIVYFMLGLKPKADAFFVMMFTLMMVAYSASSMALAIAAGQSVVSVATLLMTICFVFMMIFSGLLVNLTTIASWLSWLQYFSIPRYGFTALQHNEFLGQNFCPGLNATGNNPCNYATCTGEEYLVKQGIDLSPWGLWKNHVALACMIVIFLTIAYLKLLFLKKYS
Experimental: as §4, §3

[9] = biological target: T2, P-gp (Homo sapiens, UniProt P08183); test: Cellular uptake in Caco-2 cells with P-gp inhibitor Verapamil; format: in vitro ADME; parameters: endogenous in cells; host or cells: Caco-2; settings: 1 µM Verapamil pre-incubation 30 min, 0.2-1.0 μM, 37 °C, 4 h
T2 sequence (P08183 whole entry): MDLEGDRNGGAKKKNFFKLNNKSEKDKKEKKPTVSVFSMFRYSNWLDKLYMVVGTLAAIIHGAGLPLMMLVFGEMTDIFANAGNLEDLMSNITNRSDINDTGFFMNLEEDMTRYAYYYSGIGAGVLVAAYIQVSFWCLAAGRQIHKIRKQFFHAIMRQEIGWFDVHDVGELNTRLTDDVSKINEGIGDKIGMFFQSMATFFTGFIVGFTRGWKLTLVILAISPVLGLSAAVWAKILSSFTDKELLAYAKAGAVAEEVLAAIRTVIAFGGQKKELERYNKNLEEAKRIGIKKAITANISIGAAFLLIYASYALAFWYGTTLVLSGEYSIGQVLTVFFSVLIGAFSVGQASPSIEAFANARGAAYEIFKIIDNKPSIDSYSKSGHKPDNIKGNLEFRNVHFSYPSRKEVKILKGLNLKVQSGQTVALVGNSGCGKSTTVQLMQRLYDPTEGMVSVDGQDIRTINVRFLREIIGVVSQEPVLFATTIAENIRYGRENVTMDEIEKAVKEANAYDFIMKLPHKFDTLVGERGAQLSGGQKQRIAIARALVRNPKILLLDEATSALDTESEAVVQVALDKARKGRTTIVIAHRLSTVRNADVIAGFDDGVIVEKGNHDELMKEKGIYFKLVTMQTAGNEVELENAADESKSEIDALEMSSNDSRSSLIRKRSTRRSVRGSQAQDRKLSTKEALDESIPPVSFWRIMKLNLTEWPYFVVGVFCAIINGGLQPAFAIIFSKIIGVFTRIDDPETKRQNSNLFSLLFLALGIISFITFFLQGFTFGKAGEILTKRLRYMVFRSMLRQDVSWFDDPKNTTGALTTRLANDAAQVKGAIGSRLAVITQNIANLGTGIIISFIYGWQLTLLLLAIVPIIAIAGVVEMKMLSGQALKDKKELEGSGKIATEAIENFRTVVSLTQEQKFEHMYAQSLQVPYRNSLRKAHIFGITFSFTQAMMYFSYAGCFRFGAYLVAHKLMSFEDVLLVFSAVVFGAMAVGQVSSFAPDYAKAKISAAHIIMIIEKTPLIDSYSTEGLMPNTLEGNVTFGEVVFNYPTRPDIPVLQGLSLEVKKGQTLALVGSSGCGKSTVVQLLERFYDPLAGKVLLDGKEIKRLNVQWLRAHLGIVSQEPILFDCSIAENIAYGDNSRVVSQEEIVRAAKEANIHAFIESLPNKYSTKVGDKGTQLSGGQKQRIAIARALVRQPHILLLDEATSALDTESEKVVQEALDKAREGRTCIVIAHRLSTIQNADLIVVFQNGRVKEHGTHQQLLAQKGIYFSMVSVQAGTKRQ
Experimental: as §4, §3

[10] = biological target: T1, BCRP; settings: cited from earlier work
[11] = biological target: T2, P-gp; settings: cited from earlier work
[12] = Caco-2 cells, 0.2 to 1.0 μM, 4 h, MTT

Compound | IC50 [1] | IC50 [2] | IC50 [3] | IC50 [4] | cell viability [5, 12] | Papp AP-BL ([6]; 37 °C) | efflux ratio (ER) = Papp BL-AP/Papp AP-BL [6] | effect of temperature on cellular uptake [7] | substrate of BCRP (uptake with Gefitinib) [8] | substrate of P-gp (uptake with Verapamil) [9] | Papp of LY (monolayer integrity marker) ([6]; 20 µg/mL, 2 h, 37 °C) | cell viability [5] | substrate of BCRP [10] | substrate of P-gp [11]
CC[C@@]1(O)C(=O)OCc2c1cc1n(c2=O)Cc2c-1nc1cc3c(cc1c2-c1ccc(F)c(C)c1)OCO3 [FL77-29, 7-(4-Fluoro-3-methylphenyl)-10,11-methylenedioxy-20(S)-CPT] | 0.025 ± 0.003 µM | 0.034 ± 0.002 µM | 0.028 ± 0.004 µM | 0.036 ± 0.004 µM | above 90% | 2.48 ± 0.18 × 10^−6 cm/s | 1.40 | incubation at 4 °C significantly increased the cellar uptake | not a substrate for BCRP | mediated by P-gp |  |  |  | 
Lucifer yellow [LY, reference compound] |  |  |  |  |  |  |  |  |  |  | 0.57 ± 0.14 × 10^−6 cm/s |  |  | 
CC[C@@]1(O)C(=O)OCc2c1cc1n(c2=O)Cc2cc3cc4c(cc3nc2-1)OCO4 [FL118, 10,11-methylenedioxy-20(S)-CPT, reference compound] | 0.05 ± 0.004 µM | 0.104 ± 0.002 µM | 0.043 ± 0.004 µM | 0.04 ± 0.003 µM |  |  |  | no significant effect | not substrates of P-gp or BCRP | not substrates of P-gp |  | above 90% | not being a substrate for P-gp or BCRP | not being a substrate for P-gp
CC[C@@]1(O)C(=O)OCc2c1cc1n(c2=O)Cc2c-1nc1cc3c(cc1c2-c1ccc(C)c(F)c1)OCO3 [FL77-28, 7-(3-Fluoro-4-methylphenyl)-10,11-methylenedioxy-20(S)-CPT] | 0.045 ± 0.014 µM | 0.065 ± 0.001 µM | 0.048 ± 0.007 µM | 0.022 ± 0.007 µM | above 90% | 2.32 ± 0.04 × 10^−6 cm/s | 1.14 | no significant effect | not substrates of P-gp or BCRP | not substrates of P-gp |  |  |  | 
